The values below come from the supplement of paper PMC10307832.

Experiment in all cases: relative viability (nuclei count vs DMSO), 5 days (fraction); higher = more cells survive
Compound in the assay “Cediranib + Linsitinib”: COc1cc2c(Oc3ccc4[nH]c(C)cc4c3F)ncnc2cc1OCCCN1CCCC1 [Cediranib] + C[C@]1(O)C[C@@H](c2nc(-c3ccc4ccc(-c5ccccc5)nc4c3)c3c(N)nccn32)C1 [Linsitinib] (partner 1 µM)
The method in brief: (§1)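 Relative viability is defined as nuclei in treated wells over nuclei in vehicle wells. Duplicate plates were run and medians reported. Lung cancer cell lines in 1536-well plates were dosed by pin tool one day after seeding, with one drug or with a fixed anchor-drug dose plus five library-drug doses (not always all listed) in √10 steps, and nuclei were counted after 5 days.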

Compound in the assay “Cediranib + Vorinostat”: COc1cc2c(Oc3ccc4[nH]c(C)cc4c3F)ncnc2cc1OCCCN1CCCC1 [Cediranib] + O=C(CCCCCCC(=O)Nc1ccccc1)NO [Vorinostat] (partner 1 µM)
The method in brief:
as §1

Compound in the assay “Halofuginone + Alpelisib”: O=C(C[C@H]1NCCC[C@@H]1O)Cn1cnc2cc(Br)c(Cl)cc2c1=O (racemic) [Halofuginone] + Cc1nc(NC(=O)N2CCC[C@H]2C(N)=O)sc1-c1ccnc(C(C)(C)C(F)(F)F)c1 [Alpelisib] (partner 2 µM)
The method in brief: as §1

Compound in the assay “Halofuginone + Dasatinib”: O=C(C[C@H]1NCCC[C@@H]1O)Cn1cnc2cc(Br)c(Cl)cc2c1=O (racemic) [Halofuginone] + Cc1nc(Nc2ncc(C(=O)Nc3c(C)cccc3Cl)s2)cc(N2CCN(CCO)CC2)n1 [Dasatinib] (partner 0.075 µM)
The method in brief:
as §1

For NCI-H2405, the relative viability with Cediranib + Linsitinib (first compound 0.04 µM) worked out at 1; with Cediranib + Linsitinib (first compound 0.1265 µM), 1.25; with Cediranib + Linsitinib (first compound 0.4 µM) it was 0.838; with Cediranib + Linsitinib (first compound 1.265 µM), 1.06; with Cediranib + Linsitinib (first compound 4 µM), 0.836; in the assay with Cediranib + Vorinostat (first compound 0.04 µM) it was 0.995. The relative viability in the assay with Cediranib + Vorinostat (first compound 0.1265 µM) worked out at 0.928; in the assay with Cediranib + Vorinostat (first compound 0.4 µM) it was 0.983; with Cediranib + Vorinostat (first compound 1.265 µM) it was 1.03; in the assay with Cediranib + Vorinostat (first compound 4 µM) it was 1.21; with Halofuginone + Alpelisib (first compound 0.001 µM), 0.94; in the assay with Halofuginone + Alpelisib (first compound 0.003162 µM) it was 0.939. Moreover, the relative viability with Halofuginone + Alpelisib (first compound 0.01 µM) came to 0.839; in the assay with Halofuginone + Alpelisib (first compound 0.03162 µM), 0.757; in the assay with Halofuginone + Alpelisib (first compound 0.1 µM), 0.546; with Halofuginone + Dasatinib (first compound 0.001 µM), 0.21; in the assay with Halofuginone + Dasatinib (first compound 0.003162 µM), 0.246; with Halofuginone + Dasatinib (first compound 0.01 µM), 0.241. The relative viability with Halofuginone + Dasatinib (first compound 0.03162 µM) came out at 0.209; with Halofuginone + Dasatinib (first compound 0.1 µM), 0.223.

For NCI-H3122, the relative viability with Cediranib + Linsitinib (first compound 0.04 µM) was found to be 1.01; in the assay with Cediranib + Linsitinib (first compound 0.1265 µM), 1.07; in the assay with Cediranib + Linsitinib (first compound 0.4 µM) it was 0.986; with Cediranib + Linsitinib (first compound 1.265 µM), 1.02; in the assay with Cediranib + Linsitinib (first compound 4 µM) it was 1.03; in the assay with Cediranib + Vorinostat (first compound 0.04 µM), 1.02. Besides, the relative viability is 0.985 with Cediranib + Vorinostat (first compound 0.4 µM); 1.13 with Cediranib + Vorinostat (first compound 1.265 µM); 1.07 with Cediranib + Vorinostat (first compound 4 µM); 0.79 with Halofuginone + Alpelisib (first compound 0.001 µM); 0.801 with Halofuginone + Alpelisib (first compound 0.003162 µM); 0.638 in the assay with Halofuginone + Alpelisib (first compound 0.01 µM). Also, the relative viability came out at 0.76 in the assay with Halofuginone + Alpelisib (first compound 0.03162 µM); 0.781 with Halofuginone + Alpelisib (first compound 0.1 µM); 0.852 in the assay with Halofuginone + Dasatinib (first compound 0.001 µM); 0.658 with Halofuginone + Dasatinib (first compound 0.003162 µM); 0.735 with Halofuginone + Dasatinib (first compound 0.01 µM); 0.806 in the assay with Halofuginone + Dasatinib (first compound 0.03162 µM). In addition, the relative viability with Halofuginone + Dasatinib (first compound 0.1 µM) was 0.66.

Regarding PC-3 [JPC-3], the relative viability was determined as 0.991 with Cediranib + Linsitinib (first compound 0.04 µM); 0.942 in the assay with Cediranib + Linsitinib (first compound 0.1265 µM); 0.907 with Cediranib + Linsitinib (first compound 0.4 µM); 0.93 in the assay with Cediranib + Linsitinib (first compound 1.265 µM); 1.04 in the assay with Cediranib + Linsitinib (first compound 4 µM); 0.771 in the assay with Cediranib + Vorinostat (first compound 0.04 µM). The relative viability in the assay with Cediranib + Vorinostat (first compound 0.4 µM) is 0.765; with Cediranib + Vorinostat (first compound 1.265 µM), 0.855; in the assay with Cediranib + Vorinostat (first compound 4 µM), 0.797; in the assay with Halofuginone + Alpelisib (first compound 0.001 µM), 1.09; with Halofuginone + Alpelisib (first compound 0.003162 µM), 1.03; with Halofuginone + Alpelisib (first compound 0.01 µM) it was 0.95. The relative viability with Halofuginone + Alpelisib (first compound 0.03162 µM) worked out at 1.01; with Halofuginone + Alpelisib (first compound 0.1 µM) it was 0.92; with Halofuginone + Dasatinib (first compound 0.001 µM) it was 0.933; with Halofuginone + Dasatinib (first compound 0.003162 µM), 0.966; with Halofuginone + Dasatinib (first compound 0.01 µM), 0.955; with Halofuginone + Dasatinib (first compound 0.03162 µM), 1.02. For the same cell line, in the assay with Halofuginone + Dasatinib (first compound 0.1 µM), the relative viability was found to be 1.03.

Regarding PC-14, the relative viability in the assay with Cediranib + Linsitinib (first compound 0.04 µM) is 0.935; with Cediranib + Linsitinib (first compound 0.1265 µM), 0.986; with Cediranib + Linsitinib (first compound 0.4 µM) it was 0.905; with Cediranib + Linsitinib (first compound 1.265 µM) it was 0.897; with Cediranib + Linsitinib (first compound 4 µM), 0.965; with Cediranib + Vorinostat (first compound 0.04 µM) it was 0.831. For the same cell line, the relative viability in the assay with Cediranib + Vorinostat (first compound 0.1265 µM) is 0.755; with Cediranib + Vorinostat (first compound 0.4 µM) it was 0.744; with Cediranib + Vorinostat (first compound 1.265 µM) it was 0.801; in the assay with Cediranib + Vorinostat (first compound 4 µM), 0.451; with Halofuginone + Alpelisib (first compound 0.001 µM), 0.985; with Halofuginone + Alpelisib (first compound 0.003162 µM) it was 1.01. Besides, the relative viability was determined as 0.878 in the assay with Halofuginone + Alpelisib (first compound 0.01 µM); 0.724 in the assay with Halofuginone + Alpelisib (first compound 0.03162 µM); 0.428 with Halofuginone + Alpelisib (first compound 0.1 µM); 0.259 in the assay with Halofuginone + Dasatinib (first compound 0.001 µM); 0.305 in the assay with Halofuginone + Dasatinib (first compound 0.003162 µM); 0.189 with Halofuginone + Dasatinib (first compound 0.01 µM). The relative viability with Halofuginone + Dasatinib (first compound 0.03162 µM) came out at 0.0636; with Halofuginone + Dasatinib (first compound 0.1 µM), 0.03.
